Experiments:
[1] = biological target: T1, Protein kinase C (PKC) (Homo sapiens) (UniProt O94806+P41743+P17252+P05129+Q05655+P05771+Q05513+Q02156+P24723+Q15139+Q04759); experiment: Inhibition of PKC in human SH-SY5Y cells assessed as inhibition of PMA-stimulated MARCKS phosphorylation at 10 uM preincubated for 1 hr followed by PMA-stimulation for 15 mins by Western blot analysis relative to control; assay type: cell-based
[2] = biological target: T1, Protein kinase C (PKC) (Homo sapiens); experiment: Inhibition of PKC in human SH-SY5Y cells assessed as inhibition of PMA-stimulated MARCKS phosphorylation at 3 uM preincubated for 1 hr followed by PMA-stimulation for 15 mins by Western blot analysis relative to control; assay type: cell-based
[3] = biological target: T2, Estrogen receptor (Homo sapiens, UniProt P03372); experiment: biochemical
T2 sequence (P03372 whole entry): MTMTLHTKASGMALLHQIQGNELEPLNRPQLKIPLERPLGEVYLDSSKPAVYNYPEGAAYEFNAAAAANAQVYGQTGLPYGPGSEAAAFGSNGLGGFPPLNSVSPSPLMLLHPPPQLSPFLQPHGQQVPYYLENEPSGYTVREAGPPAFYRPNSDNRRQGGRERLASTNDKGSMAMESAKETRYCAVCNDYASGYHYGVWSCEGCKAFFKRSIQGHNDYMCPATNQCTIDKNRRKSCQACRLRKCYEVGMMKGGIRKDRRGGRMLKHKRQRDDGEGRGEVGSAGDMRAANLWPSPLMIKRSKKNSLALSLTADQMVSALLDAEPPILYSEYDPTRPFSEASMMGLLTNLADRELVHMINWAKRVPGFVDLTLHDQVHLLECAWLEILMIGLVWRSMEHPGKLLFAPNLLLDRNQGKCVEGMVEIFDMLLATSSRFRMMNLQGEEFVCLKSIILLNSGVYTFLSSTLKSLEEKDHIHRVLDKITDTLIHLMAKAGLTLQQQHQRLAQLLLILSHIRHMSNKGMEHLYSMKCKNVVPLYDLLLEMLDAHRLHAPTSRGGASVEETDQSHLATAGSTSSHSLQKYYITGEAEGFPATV
Description: Displacement of Fluormone ES2 Green from human recombinant full length ERalpha expressed in insect cells measured up to 4 hrs by fluorescence polarization assay

Row | SMILES | inhibition [1] [%] | inhibition [2] [%] | IC50 [3] [µM]
1 | N#C/C(=C(\c1ccccc1)c1ccc(OCCN2CCOCC2)cc1)c1ccccc1 | 57 | 43 | –
2 | CN(C)CCOc1ccc(C(=C(C#N)c2cccs2)c2ccc(OCCN(C)C)cc2)cc1 | 68 | 39 | > 10
3 | CCN(CC)CCOc1ccc(C(=C(C#N)c2ccccc2)c2ccc(OCCN(CC)CC)cc2)cc1 | 68 | 12 | > 10
4 | CN(C)CCOc1ccc(C(=C(C#N)c2ccccc2)c2ccccc2)cc1 | 67 | 22 | –
5 | N#C/C(=C(/c1ccccc1)c1ccc(OCCN2CCOCC2)cc1)c1ccccc1 | 70 | 37 | –

Now from value to molecule:

Row | inhibition [1] [%] | inhibition [2] [%] | IC50 [3] [µM] | SMILES
6 | 78 | 83 | > 10 | CN1CCN(CCOc2ccc(C(=C(C#N)c3ccccc3)c3ccc(OCCN4CCN(C)CC4)cc3)cc2)CC1
7 | 72 | 62 | 0.553 | N#CC(=C(c1ccc(OCCN2CCOCC2)cc1)c1ccc(OCCN2CCOCC2)cc1)c1ccccc1

Reference: ChEMBL document CHEMBL3861995 (Bioorg Med Chem, 2016)
